Patent publication US9201014B2, “Development of photostable near-IR cyanine dyes for in vivo imaging” (National University of Singapore, priority 2010, dated 2015)

Assays:
[1] = in DMSO; cited from earlier work
[2] = Time-course fluorescence measurements (photobleaching rate constants) of CyN and CyNA derivatives in HEPES buffer; format: physicochemical; details: for k, rate of photobleaching: 10 μM in 10 mM HEPES pH 7.4, 1% DMSO, pseudo-first order; for kCyN/kCyNA: ratio of photobleaching rate constants, aqueous media
Description: Values were fitted to a non-linear regression one-phase exponential decay (GraphPad Prism 5.0). Detailed statistics for the one-phase decay analysis of the CyN compounds and 1 follow: Photodecomposition rate constants were determined by plotting -ln(F/F0) vs time, and calculated using a pseudo-first order rate equation. See […]., et al., Photochem. Photobiol. 2000, 72, 392-398.

[3] = Absorbance/fluorescence maxima, quantum yields and extinction coefficients of CyN compounds; format: physicochemical
Description: The absorbance and fluorescence maximum wavelengths and extinction coefficients of CyN-111, 165, 272 and 295 were measured using 10-μM solutions of CyN-111, CyN-165, CyN-272 or CyN-295 in 10 mM HEPES buffer (pH 7.4) containing 1% DMSO. Quantum yields were measured in DMSO, using Cardiogreen as a standard (φ: 0.13, in DMSO).

[4] = Rates of photobleaching of CyNA-414 and CyN-414; format: physicochemical; details: for k, rate of photobleaching: 10 μM in 10 mM HEPES pH 7.4, 1% DMSO, xenon flash lamp, 12 hours
Description: 10-μM solutions of CyNA-414 and CyN-414 in 10 mM HEPES buffer (pH 7.4) containing 1% DMSO were placed in a 96-well black plate, and fluorescence intensity measurements (n=3) were recorded every 10 minutes for a total period of 12 hours (excitation-emission: 640-750 nm for CyN-414, and 790-820 nm for CyNA-414) under a xenon flash lamp. Values were fitted to a non-linear regression one-phase exponential decay (GraphPad Prism 5.0).

[5] = Absorbance and fluorescence maximum wavelengths and quantum yields of the CyNA library; format: physicochemical; details: for λabs, absorbance maximum wavelength / λem, fluorescence maximum wavelength: CyNA library; for φ, quantum yield: in DMSO, Cardiogreen as standard
How it was run: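 Absorption and emission maxima and quantum yields of the 80-member amine-derivatized CyNA library were measured on a plate spectrophotometer.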

[6] = Primary screening of photostability of the CyNA library (time-course fluorescence, 8 h); format: physicochemical; design: F/Fo, fluorescent intensity at 8 hours vs 0 hours: unit: %; details: 10 μM in HEPES 100 mM pH 7.4, 2% DMSO
How it was run: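 CyNA dyes at 10 μM in 100 mM HEPES pH 7.4 with 2% DMSO irradiated by xenon lamp for 8 h. Fluorescence (ex/em 790-820 nm) read every 10 min; stability given as F8h/Fo.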

[7] = format: physicochemical
Description: As a primary evaluation of photo stability, the decrease in fluorescence intensity of the 80 CyNA compounds was measured (see Table 2). The average decrease in fluorescence intensity after 8 hours of irradiation by a xenon lamp was approximately 18%. A subset of the most photostable compounds (i.e., F/Fo reported in Table 2 was greater than or equal to 95) was examined under stronger irradiation in various buffers.
10-μM CyNA solutions in 10 mM HEPES buffer (pH 7.4) or PBS (pH 7.3) containing 1% DMSO were placed in a 96-well black plate, and irradiated for periods of 15 minutes up to 2 hours with a high-intensity UV lamp (100 W, 365 nm) at a 2-cm distance. Values are represented as means (n=2), and fitted to a non-linear regression one-phase exponential decay (GraphPad Prism 5.0). Results not shown.

[8] = Characterization of the CyNAMLA library (absorbance maximum wavelengths); format: physicochemical; details: absorbance maximum wavelength of CyNAMLA library compounds
Description: The amine group of 21 was protected using di-tert-butyl dicarbonate then derivatized with 80 different primary amines (for structures, see FIGS. 14A-14D). After acetylation of the newly-introduced amine, the compounds were treated with a solution of TFA-DCM (1:9) to remove the tert-butylcarbamate protecting group. The deprotected amine was then coupled to lipoic acid to yield CyNAMLA derivatives with an average purity of 90% (for HPLC-determined purities, see Table 6).

[9] = Primary screen of SERS intensities of CyNAMLA-functionalized AuNPs (compact Raman scanner); format: physicochemical; details: SERS spectra of CyNAMLA-functionalized AuNPs; excitation at 785 nm, laser power 60 mW
Description: FIG. 15 is a graph of the comparative surface-enhanced Raman spectroscopy (SERS) intensities of members of the CyNAMLA library measured with an excitation wavelength of 785 nm and a laser power of 60 mW in a compact Raman scanner.
The CyNAMLA compounds were adsorbed onto AuNPs having a diameter of approximately 60 nm, and the SERS properties of the resulting CyNAMLA-functionalized AuNPs were evaluated using a compact Raman scanner. Among metal nanoparticles, AuNPs are particularly suitable for in vivo applications due to their low toxicity, adaptability to bioconjugation, and reproducible signal intensity and quantification.

[10] = Photophysical properties of CyNE790 and ICG-sulfo-OSu; format: physicochemical
Description: FIG. 7A is an absorbance spectrum of 10-μM solutions of CyNA-414, CyNE790, ICG and ICG-sulfo-OSu in DMSO and PBS.
FIG. […]
After corroborating the spectral properties of CyNE790 as a fluorescent NIR dye, its applicability for protein conjugation was assessed by comparing CyNE790 to ICG-sulfo-OSu, the commercially available succinidimyl ester of ICG. […] However, the application of ICG to molecular imaging has been limited because its fluorescence is drastically quenched after protein conjugation.

[11] = Formation of aggregates: absorbance spectrum in DMSO vs PBS; format: physicochemical
[12] = Photobleaching of CyNE790 and ICG-sulfo-OSu in PBS; format: physicochemical; details: photobleaching experiments
Source text: CyNE790 was also compared to ICG-sulfo-OSu, a commercially available succinimidyl ester of ICG (for chemical structures of CyNE790 and ICG-sulfo-OSu, see FIG. 8).

[13] = 10 μM in 10 mM HEPES pH 7.4, 1% DMSO

CC1(C)C(/C=C/C=C/C=C/C=C2\N(CCCCS(=O)(=O)[O-])c3ccc4ccccc4c3C2(C)C)=[N+](CCCCS(=O)(=O)[O-])c2ccc3ccccc3c21.[Na+] [Cardiogreen]
φ of quantum yield standard [1]: 0.13

CCCN1/C(=C/C=C2\CCCC(/C=C/C3=[N+](CCC)c4ccccc4C3(C)C)=C2NCCCOC)C(C)(C)c2ccccc21.[I-] [CyN-165]
k, rate of photobleaching [2]: 3.49e-05 s⁻¹ | ε, extinction coefficient [3, 13]: 0.352 · 10^5 cm^−1M^−1 | λabs [3, 13]: 640 nm | λem [3, 13]: 762 nm | φ, quantum yield ([3]; in DMSO, Cardiogreen as standard): 0.37

CCCN1/C(=C/C=C2\CCCC(/C=C/C3=[N+](CCC)c4ccccc4C3(C)C)=C2NCCCN2CCCCC2C)C(C)(C)c2ccccc21.[I-] (stereo not drawn) [CyN-414]
k, rate of photobleaching [4]: 1.75e-05 s⁻¹

CCCN1/C(=C/C=C2\CCCC(/C=C/C3=[N+](CCC)c4ccccc4C3(C)C)=C2N(CCc2ccccn2)C(C)=O)C(C)(C)c2ccccc21.[I-] [CyNA-111]
k, rate of photobleaching [2]: 3.41e-06 s⁻¹ | kCyN/kCyNA [2]: 12 | λabs, absorbance maximum wavelength [5]: 804 nm | λem, fluorescence maximum wavelength [5]: 818 nm | φ, quantum yield [5]: 0.11 | F/Fo, fluorescent intensity at 8 hours vs 0 hours [6]: 96 | max RFU, maximum relative fluorescence units [6]: 565.6

CCCN1/C(=C/C=C2\CCCC(/C=C/C3=[N+](CCC)c4ccccc4C3(C)C)=C2N(CCCOC)C(C)=O)C(C)(C)c2ccccc21.[I-] [CyNA-165]
k, rate of photobleaching [2]: 4.53e-06 s⁻¹ | kCyN/kCyNA [2]: 8 | λabs, absorbance maximum wavelength [5]: 806 nm | λem, fluorescence maximum wavelength [5]: 821 nm | φ, quantum yield [5]: 0.09 | F/Fo, fluorescent intensity at 8 hours vs 0 hours [6]: 94 | max RFU, maximum relative fluorescence units [6]: 775.1

CCCN1/C(=C/C=C2\CCCC(/C=C/C3=[N+](CCC)c4ccccc4C3(C)C)=C2N(CC)C(C)=O)C(C)(C)c2ccccc21.[I-] [CyNA-295]
k, rate of photobleaching [2]: 3.81e-06 s⁻¹ | kCyN/kCyNA [2]: 8 | λabs, absorbance maximum wavelength [5]: 806 nm | λem, fluorescence maximum wavelength [5]: 820 nm | φ, quantum yield [5]: 0.11 | F/Fo, fluorescent intensity at 8 hours vs 0 hours [6]: 100 | max RFU, maximum relative fluorescence units [6]: 698.6

CCCN1/C(=C/C=C2\CCCC(/C=C/C3=[N+](CCC)c4ccccc4C3(C)C)=C2N(CCCN2CCCCC2C)C(C)=O)C(C)(C)c2ccccc21.[I-] (stereo not drawn) [CyNA-414]
λabs, absorbance maximum wavelength [5]: 804 nm | λem, fluorescence maximum wavelength [5]: 819 nm | φ, quantum yield [5]: 0.13 | F/Fo, fluorescent intensity at 8 hours vs 0 hours [6]: 100 | max RFU, maximum relative fluorescence units [6]: 925.5 | k, rate of photobleaching [4]: 2.5e-06 s⁻¹ | kCyN/kCyNA ([4]; CyN-414 vs CyNA-414): 7 | photostability under stronger irradiation in various buffers [7]: best photostability

CCCN1/C(=C/C=C2\CCCC(/C=C/C3=[N+](CCCNC(=O)CCCCC4CCSS4)c4ccccc4C3(C)C)=C2N(Cc2ccc(Cl)cc2Cl)C(C)=O)C(C)(C)c2ccccc21.O=C([O-])C(F)(F)F (stereo not drawn) [CyNAMLA-531]
λabs (max) [8]: 805 nm | Raman intensity [9]: 5272

CCCN1/C(=C/C=C2\CCCC(/C=C/C3=[N+](CCCNC(=O)CCCCC4CCSS4)c4ccccc4C3(C)C)=C2N(Cc2ccc(Cl)c(Cl)c2)C(C)=O)C(C)(C)c2ccccc21.O=C([O-])C(F)(F)F (stereo not drawn) [CyNAMLA-565]
λabs (max) [8]: 805 nm | Raman intensity [9]: 14019

CCCN1/C(=C/C=C2\CCCC(/C=C/C3=[N+](CCCNC(=O)CCCCC4CCSS4)c4ccccc4C3(C)C)=C2N(CC(C)CC)C(C)=O)C(C)(C)c2ccccc21.O=C([O-])C(F)(F)F (stereo not drawn) [CyNAMLA-574]
λabs (max) [8]: 804 nm | Raman intensity [9]: 1763

CCCN1/C(=C/C=C2\CCCC(/C=C/C3=[N+](CCCNC(=O)CCCCC4CCSS4)c4ccccc4C3(C)C)=C2N(CCc2ccccc2-c2ccccc2)C(C)=O)C(C)(C)c2ccccc21.O=C([O-])C(F)(F)F (stereo not drawn) [CyNAMLA-599]
λabs (max) [8]: 804 nm | Raman intensity [9]: 11616

CCCN1/C(=C/C=C2\CCCC(/C=C/C3=[N+](CCCNC(=O)CCCCC4CCSS4)c4ccccc4C3(C)C)=C2N(CCCN2CCCC2)C(C)=O)C(C)(C)c2ccccc21.O=C([O-])C(F)(F)F (stereo not drawn) [CyNAMLA-611]
λabs (max) [8]: 804 nm | Raman intensity [9]: 18833

CCCN1/C(=C/C=C2\CCCC(/C=C/C3=[N+](CCCNC(=O)CCCCC4CCSS4)c4ccccc4C3(C)C)=C2N(CCc2ccc(Cl)cc2)C(C)=O)C(C)(C)c2ccccc21.O=C([O-])C(F)(F)F (stereo not drawn) [CyNAMLA-677]
λabs (max) [8]: 805 nm | Raman intensity [9]: 2455

CCCN1/C(=C/C=C2\CCCC(/C=C/C3=[N+](CCCNC(=O)CCCCC4CCSS4)c4ccccc4C3(C)C)=C2N(CCc2ccc(Cl)cc2Cl)C(C)=O)C(C)(C)c2ccccc21.O=C([O-])C(F)(F)F (stereo not drawn) [CyNAMLA-686]
λabs (max) [8]: 806 nm | Raman intensity [9]: 8146

CC1(C)C(/C=C/C=C/C=C/C=C2\N(CCCCS(=O)(=O)[O-])c3ccc4ccccc4c3C2(C)C)=[N+](CCCCCC(=O)ON2C(=O)CC(S(=O)(=O)[O-])C2=O)c2ccc3ccccc3c21.[Na+] (stereo not drawn) [ICG-sulfo-OSu, reference compound]
Quantum Yield (DMSO) ([10]; DMSO, ICG as standard): 12% | Quantum Yield (aqueous media) ([10]; PBS pH 7.3, 0.1% DMSO): 0.4% | ε (aqueous media) ([10]; PBS pH 7.3, 0.1% DMSO): 42,000 M^−1 · cm^−1 | absorbance maximum in DMSO ([11]; 10 μM, DMSO): 780 nm | absorbance maximum in PBS ([11]; 10 μM, PBS): 695 nm | formation of aggregates in aqueous solution ([11]; spectral profile DMSO vs PBS): formation of aggregates | maximum relative fluorescence units (rfu) [12]: 136 rfu
